Laboratory results published in article PMC11329504, “Identification of novel small molecule-based strategies of COL7A1 upregulation and readthrough activity for the treatment of recessive dystrophic epidermolysis bullosa” (Scientific Reports, 2024).
Like-named read-outs stand apart in the source and are kept apart here.

What was measured:
JAK3 = target: T1, JAK3 (Homo sapiens, UniProt P52333); assay: Enzymatic JAK3 kinase activity; format: biochemical; settings: dose-response curves; read-out: IC50 ± SD, JAK3
T1 sequence (P52333 1-1124): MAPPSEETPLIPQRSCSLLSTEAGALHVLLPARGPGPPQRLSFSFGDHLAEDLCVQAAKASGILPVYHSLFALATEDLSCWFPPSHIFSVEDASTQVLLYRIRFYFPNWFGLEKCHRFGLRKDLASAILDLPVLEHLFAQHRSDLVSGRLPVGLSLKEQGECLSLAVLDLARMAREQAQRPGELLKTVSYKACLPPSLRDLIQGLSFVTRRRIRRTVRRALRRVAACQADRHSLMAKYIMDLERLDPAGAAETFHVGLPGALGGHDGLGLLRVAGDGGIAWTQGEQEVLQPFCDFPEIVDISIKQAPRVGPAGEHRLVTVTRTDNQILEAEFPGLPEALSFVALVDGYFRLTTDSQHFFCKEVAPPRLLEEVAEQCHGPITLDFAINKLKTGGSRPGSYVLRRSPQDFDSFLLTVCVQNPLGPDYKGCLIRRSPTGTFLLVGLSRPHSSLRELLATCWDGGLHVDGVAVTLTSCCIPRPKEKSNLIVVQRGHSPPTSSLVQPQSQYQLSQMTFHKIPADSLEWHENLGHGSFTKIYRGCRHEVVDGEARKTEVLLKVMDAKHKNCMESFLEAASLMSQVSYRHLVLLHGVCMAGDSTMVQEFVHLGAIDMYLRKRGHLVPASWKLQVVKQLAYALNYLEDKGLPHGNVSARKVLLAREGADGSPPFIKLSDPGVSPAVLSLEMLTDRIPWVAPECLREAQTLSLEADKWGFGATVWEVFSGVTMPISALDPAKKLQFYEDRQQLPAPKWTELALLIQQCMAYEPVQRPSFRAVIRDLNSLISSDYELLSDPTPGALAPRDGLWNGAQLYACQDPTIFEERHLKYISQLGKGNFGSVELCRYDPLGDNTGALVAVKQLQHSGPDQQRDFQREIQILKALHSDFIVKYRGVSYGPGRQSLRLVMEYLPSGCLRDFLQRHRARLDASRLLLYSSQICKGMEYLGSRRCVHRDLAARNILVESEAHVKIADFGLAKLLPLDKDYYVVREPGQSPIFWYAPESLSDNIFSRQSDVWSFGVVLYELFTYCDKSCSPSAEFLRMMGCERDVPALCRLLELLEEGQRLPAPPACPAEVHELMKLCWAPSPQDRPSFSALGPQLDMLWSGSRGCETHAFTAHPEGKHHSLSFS
Method: (§1) Enzymatic Syk kinase activity assays were performed as previously described. Enzymatic activity of JAK1, JAK2, JAK3, and Tyk kinases was evaluated as previously described.

Tyk2 = Tyk2 (Homo sapiens, UniProt P29597); assay: Enzymatic Tyk2 kinase activity; format: biochemical; settings: dose-response curves; read-out: IC50 ± SD, Tyk2
Method: as §1

JAK1 = JAK1 (Homo sapiens, UniProt P23458); assay: Enzymatic JAK1 kinase activity; format: biochemical; settings: dose-response curves; read-out: IC50 ± SD, JAK1
Method: as §1

A2A = target: T2, A2A (Homo sapiens, UniProt P29274); assay: Selectivity panel (Eurofins): A2A adenosine receptor; format: binding
T2 construct: Eurofins Pharma Discovery Services

Dopamine transporter = target: T3, Dopamine transporter (Homo sapiens, UniProt Q01959); assay: Selectivity panel (Eurofins): dopamine transporter; format: binding; settings: n = 1, duplicate
T3 construct: Eurofins Pharma Discovery Services
Method: (§2) Selectivity was evaluated at Eurofins Pharma Discovery Services at 3 µM, 10 µM, and 30 µM in duplicate using a selection of 84 representative kinases and 44 GPCRs, transporters, nuclear receptors (NR), enzymes, and ion channels.

PDE4D2 = target: T4, PDE4D2 (Homo sapiens, UniProt Q08499); assay: Selectivity panel (Eurofins): PDE4D2; format: biochemical; settings: n = 1, duplicate
T4 construct: Eurofins Pharma Discovery Services
Method: as §2

Kappa (KOP) = assay: Selectivity panel (Eurofins): Kappa (KOP); format: binding; settings: n = 1, duplicate
Method: as §2

[1] = Cytotoxicity, ATP levels (ATPlite), RDEB_L1 cells; format: cell-based; settings: human, RDEB L1 cells (RDEB patient-derived cell line)
Method: The viability of RDEB patient-derived cell lines or NHK was evaluated by measuring the ATP levels as an indirect readout of the potential cytotoxicity effect of compounds. Cells were plated and treated exactly with the same conditions as those followed in the AlphaLISA assay, described above. To measure ATP levels, cells were processed using the ATPlite™ 1step luminescence-based assay (PerkinElmer 6,016,731), following the manufacturer’s protocol. 25 μL of ATPlite™ reagent was added directly over cells and plates were covered with a sealing film and shaken for 25 min using a microtiter plate shaker. Luminescence was measured in a Luminoskan Ascent luminometer (Thermo Fisher Scientific). 10 μM of Staurosporine was used as a reference compound and control for the total cytotoxicity.

T2 sequence (P29274 whole entry): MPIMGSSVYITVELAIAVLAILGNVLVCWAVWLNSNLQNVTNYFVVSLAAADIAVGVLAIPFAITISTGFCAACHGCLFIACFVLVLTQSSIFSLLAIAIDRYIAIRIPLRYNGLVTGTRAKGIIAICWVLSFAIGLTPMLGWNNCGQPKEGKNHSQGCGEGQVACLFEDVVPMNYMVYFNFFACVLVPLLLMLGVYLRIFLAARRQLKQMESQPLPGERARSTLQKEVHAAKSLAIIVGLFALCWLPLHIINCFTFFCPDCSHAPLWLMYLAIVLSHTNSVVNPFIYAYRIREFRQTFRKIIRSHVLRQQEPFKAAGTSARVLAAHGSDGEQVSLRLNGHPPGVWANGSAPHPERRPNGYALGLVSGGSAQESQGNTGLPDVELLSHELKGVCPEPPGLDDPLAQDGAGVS
T4 sequence (Q08499 303-809 limits assumed): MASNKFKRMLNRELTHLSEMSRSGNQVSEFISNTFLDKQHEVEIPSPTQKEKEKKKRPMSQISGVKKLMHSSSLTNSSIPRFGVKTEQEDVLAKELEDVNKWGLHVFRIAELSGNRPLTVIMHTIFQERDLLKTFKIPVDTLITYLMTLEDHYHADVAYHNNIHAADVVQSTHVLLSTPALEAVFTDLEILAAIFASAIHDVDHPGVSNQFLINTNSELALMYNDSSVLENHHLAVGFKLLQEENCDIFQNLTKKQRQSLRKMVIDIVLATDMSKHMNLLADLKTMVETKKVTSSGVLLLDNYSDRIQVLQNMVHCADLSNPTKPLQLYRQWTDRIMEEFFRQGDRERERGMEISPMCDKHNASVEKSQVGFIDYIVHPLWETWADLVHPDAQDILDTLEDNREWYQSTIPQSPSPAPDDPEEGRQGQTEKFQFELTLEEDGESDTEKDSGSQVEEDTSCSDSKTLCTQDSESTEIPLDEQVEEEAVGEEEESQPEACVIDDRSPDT
T3 sequence (Q01959 whole entry): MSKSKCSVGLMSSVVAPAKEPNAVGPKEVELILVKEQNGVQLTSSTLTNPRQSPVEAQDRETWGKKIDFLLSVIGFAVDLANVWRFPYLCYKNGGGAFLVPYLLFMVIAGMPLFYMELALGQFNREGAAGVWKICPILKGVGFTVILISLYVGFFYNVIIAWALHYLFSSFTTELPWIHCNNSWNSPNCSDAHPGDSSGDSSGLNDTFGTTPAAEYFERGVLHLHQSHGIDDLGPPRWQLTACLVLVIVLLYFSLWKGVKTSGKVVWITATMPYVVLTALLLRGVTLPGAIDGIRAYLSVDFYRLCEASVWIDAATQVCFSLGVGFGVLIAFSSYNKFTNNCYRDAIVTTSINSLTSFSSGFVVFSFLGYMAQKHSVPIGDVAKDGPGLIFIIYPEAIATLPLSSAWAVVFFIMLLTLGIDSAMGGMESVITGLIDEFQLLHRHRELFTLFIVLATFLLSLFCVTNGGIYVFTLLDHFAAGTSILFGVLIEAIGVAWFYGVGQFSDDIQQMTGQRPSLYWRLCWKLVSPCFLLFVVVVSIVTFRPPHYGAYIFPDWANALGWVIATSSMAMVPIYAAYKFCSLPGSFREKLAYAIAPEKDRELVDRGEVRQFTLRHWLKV
Sequence of Tyk2 (P29597 whole entry, species assumed): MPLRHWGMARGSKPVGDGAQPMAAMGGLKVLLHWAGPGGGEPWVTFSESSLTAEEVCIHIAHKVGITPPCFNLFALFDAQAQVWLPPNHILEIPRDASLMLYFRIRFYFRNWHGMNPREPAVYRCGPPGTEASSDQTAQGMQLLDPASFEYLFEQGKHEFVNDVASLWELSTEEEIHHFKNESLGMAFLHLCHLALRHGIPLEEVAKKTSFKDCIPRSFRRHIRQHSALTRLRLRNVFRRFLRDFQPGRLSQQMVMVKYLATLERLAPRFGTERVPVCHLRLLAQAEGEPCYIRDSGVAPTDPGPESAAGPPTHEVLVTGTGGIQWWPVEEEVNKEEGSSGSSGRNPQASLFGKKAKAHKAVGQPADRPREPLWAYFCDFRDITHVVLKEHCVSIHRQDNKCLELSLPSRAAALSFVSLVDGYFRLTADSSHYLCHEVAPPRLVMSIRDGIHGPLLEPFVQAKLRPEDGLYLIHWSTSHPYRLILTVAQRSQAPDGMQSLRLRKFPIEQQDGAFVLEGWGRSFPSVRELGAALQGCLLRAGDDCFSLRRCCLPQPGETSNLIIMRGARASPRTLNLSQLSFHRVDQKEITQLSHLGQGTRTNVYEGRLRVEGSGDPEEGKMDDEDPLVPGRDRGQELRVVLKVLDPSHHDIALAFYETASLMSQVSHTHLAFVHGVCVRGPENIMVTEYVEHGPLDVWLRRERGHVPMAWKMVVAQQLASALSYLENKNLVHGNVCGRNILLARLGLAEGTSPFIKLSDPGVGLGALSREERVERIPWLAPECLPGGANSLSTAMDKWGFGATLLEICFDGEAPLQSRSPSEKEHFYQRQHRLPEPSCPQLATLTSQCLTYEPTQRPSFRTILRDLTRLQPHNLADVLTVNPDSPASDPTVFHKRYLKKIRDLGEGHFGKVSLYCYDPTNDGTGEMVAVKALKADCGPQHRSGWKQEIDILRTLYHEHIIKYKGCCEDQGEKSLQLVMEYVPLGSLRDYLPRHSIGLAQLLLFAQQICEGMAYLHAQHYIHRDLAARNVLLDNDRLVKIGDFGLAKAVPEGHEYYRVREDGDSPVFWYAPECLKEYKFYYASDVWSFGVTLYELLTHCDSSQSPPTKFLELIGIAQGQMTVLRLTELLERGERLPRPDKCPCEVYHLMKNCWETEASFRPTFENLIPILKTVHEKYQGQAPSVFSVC
Sequence of JAK1 (P23458 whole entry, species assumed): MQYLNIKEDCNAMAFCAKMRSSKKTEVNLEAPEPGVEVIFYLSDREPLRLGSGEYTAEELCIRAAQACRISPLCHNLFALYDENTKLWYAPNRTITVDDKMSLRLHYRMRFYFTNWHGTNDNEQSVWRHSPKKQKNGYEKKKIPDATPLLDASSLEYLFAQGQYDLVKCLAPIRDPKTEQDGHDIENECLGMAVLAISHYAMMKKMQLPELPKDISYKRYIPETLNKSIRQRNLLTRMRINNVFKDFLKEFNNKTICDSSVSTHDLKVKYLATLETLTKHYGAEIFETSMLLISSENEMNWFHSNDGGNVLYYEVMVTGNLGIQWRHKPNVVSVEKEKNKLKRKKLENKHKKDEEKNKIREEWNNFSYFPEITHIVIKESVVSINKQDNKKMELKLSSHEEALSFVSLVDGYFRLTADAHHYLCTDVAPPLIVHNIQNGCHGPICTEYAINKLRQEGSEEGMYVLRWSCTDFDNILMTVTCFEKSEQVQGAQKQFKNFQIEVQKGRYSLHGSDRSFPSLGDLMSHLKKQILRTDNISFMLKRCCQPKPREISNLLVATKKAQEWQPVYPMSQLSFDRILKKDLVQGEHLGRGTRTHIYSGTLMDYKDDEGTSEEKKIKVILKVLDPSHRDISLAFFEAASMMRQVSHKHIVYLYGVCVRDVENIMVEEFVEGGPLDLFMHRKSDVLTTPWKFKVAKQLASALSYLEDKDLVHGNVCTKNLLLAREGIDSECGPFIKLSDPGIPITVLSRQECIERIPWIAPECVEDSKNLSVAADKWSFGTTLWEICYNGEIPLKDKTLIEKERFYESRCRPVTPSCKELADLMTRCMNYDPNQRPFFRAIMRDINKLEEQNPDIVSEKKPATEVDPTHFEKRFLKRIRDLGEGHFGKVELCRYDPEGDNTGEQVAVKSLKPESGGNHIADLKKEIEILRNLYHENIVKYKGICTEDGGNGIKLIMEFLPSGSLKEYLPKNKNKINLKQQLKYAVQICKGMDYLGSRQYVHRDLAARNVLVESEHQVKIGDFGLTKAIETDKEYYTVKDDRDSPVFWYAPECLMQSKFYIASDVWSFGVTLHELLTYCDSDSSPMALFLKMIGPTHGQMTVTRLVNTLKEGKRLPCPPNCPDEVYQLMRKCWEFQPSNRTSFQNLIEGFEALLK

In the case of `NC(=O)Cn1ccc2ccc(-c3cnc(N)c(C(=O)NC4C5CC6CC4CC(O)(C6)C5)n3)cc21` (stereo not drawn) [Compound 1], the IC50 (JAK3) is reported as 60 ± 6 nM, the IC50 (Tyk2) is reported as 30 ± 0.6 nM and the IC50 (JAK1) is reported as 440 ± 160 nM.

In the case of `C#Cc1cc(-c2ccncc2)c(-c2cccc(F)c2)nc1N` [Compound 7], the inhibition at 10 µM (A2A; Table 5, read-out: Selectivity % inhibition, A2A) is reported as 96%, the inhibition at 3 µM (A2A; at 3 μM, n = 1, duplicate, read-out: % inhibition, A2A) is reported as 101% and the inhibition at 10 µM (A2A; n = 1, duplicate, read-out: % inhibition, A2A) is reported as 100%. The inhibition at 30 µM (A2A; at 30 μM, n = 1, duplicate, read-out: % inhibition, A2A) was 101%, the “antagonism/inhibition of A2A adenosine receptor” value (A2A; at concentrations of 3 and 10 µM) was ≥ 50% and the inhibition at 3 µM (Dopamine transporter; at 3 μM) was 17%. For the same compound, the inhibition at 10 µM (Dopamine transporter; at 10 μM) was 40%, the inhibition at 30 µM (Dopamine transporter; at 30 μM) was 64% and the inhibition at 3 µM (PDE4D2; at 3 μM) was 16%. The inhibition at 10 µM (PDE4D2; at 10 μM) was 34%, the inhibition at 30 µM (PDE4D2; at 30 μM) was 61% and the “% inhibition, Kappa (KOP)” value (Kappa (KOP); at 3 μM) was 12%. The “% inhibition, Kappa (KOP)” value (Kappa (KOP); at 10 μM) was 32%, the “% inhibition, Kappa (KOP)” value (Kappa (KOP); at 30 μM) was 54% and the IC50 [1] was > 100000 nM.
